Test results: ChEMBL document CHEMBL1149774, “Synthesis of N-(5,7-diamino-3-phenyl-quinoxalin-2-yl)-3,4,5-substituted anilines and N-[4[(5,7-diamino-3-phenylquinoxalin-2-yl)amino]benzoyl]-l-glutamic acid diethyl ester: evaluation of in vitro anti-cancer and anti-folate activities” (Eur J Med Chem, 2008)
pKi: −log10 of the molar value. Active and inactive are the calls of the source. No cut-off for these calls is given here.

Legend:
[1] = target: Thymidylate synthase (Escherichia coli) (UniProt C3SWJ7); assay: Inhibition of Escherichia coli thymidylate synthase at 10 uM
Thymidylate synthase [2] = target: T1, Thymidylate synthase (Lactobacillus casei, UniProt P00469)
T1 sequence (P00469 whole entry): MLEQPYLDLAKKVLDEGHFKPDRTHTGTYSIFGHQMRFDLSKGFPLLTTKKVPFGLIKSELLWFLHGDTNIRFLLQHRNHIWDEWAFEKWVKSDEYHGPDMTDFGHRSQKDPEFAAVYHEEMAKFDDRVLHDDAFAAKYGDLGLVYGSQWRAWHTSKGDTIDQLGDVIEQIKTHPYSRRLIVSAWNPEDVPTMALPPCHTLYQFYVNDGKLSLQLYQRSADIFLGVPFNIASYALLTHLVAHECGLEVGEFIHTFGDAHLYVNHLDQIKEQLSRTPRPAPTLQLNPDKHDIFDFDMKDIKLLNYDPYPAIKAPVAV
Description: Inhibition of Lactobacillus casei thymidylate synthase

CCRF-CEM = assay: Growth inhibition of human CCRF-CEM cells after 48 hrs by SRB staining method; type: functional
Thymidylate synthase [3] = target: Thymidylate synthase (Escherichia coli, UniProt C3SWJ7)
Sequence of Thymidylate synthase (Escherichia coli, UniProt C3SWJ7) (C3SWJ7 whole entry): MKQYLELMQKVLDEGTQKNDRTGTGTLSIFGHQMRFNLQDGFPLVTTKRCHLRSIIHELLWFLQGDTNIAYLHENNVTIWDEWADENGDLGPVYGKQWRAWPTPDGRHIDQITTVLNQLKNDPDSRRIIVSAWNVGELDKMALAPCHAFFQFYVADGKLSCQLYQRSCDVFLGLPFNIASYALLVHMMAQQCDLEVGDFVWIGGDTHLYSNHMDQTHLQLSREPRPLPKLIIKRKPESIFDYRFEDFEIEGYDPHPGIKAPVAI

Sequence of Thymidylate synthase (Escherichia coli) (C3SWJ7 1-264): as the sequence (C3SWJ7 whole entry) above

Activity [1] | pKi (Thymidylate synthase [2]) | pKi (Thymidylate synthase [3]) | Structure (SMILES) | GI50 (CCRF-CEM)
inactive | 4.96 |  | COc1cc(Nc2nc3cc([N+](=O)[O-])cc([N+](=O)[O-])c3nc2-c2ccccc2)cc(OC)c1OC | 
 |  |  | CN(Cc1cnc2nc(N)nc(N)c2n1)c1ccc(C(=O)N[C@@H](CCC(=O)O)C(=O)O)cc1 [METHOTREXATE] | 0.0398 µM
inactive | 5.22 |  | COc1cc(Nc2nc3cc([N+](=O)[O-])cc([N+](=O)[O-])c3nc2-c2ccccc2)cc(OC)c1 | 
inactive | 5.10 |  | COc1ccc(Nc2nc3cc([N+](=O)[O-])cc([N+](=O)[O-])c3nc2-c2ccccc2)cc1 | 
 | 4.44 | 5.52 | CCOC(=O)CCC(NC(=O)c1ccc(Nc2nc3cc([N+](=O)[O-])cc([N+](=O)[O-])c3nc2-c2ccccc2)cc1)C(=O)OCC (stereo unspecified) | 
 | 4.62 | 6.00 | COc1ccc(Nc2nc3cc([N+](=O)[O-])cc([N+](=O)[O-])c3nc2-c2ccccc2)cc1OC | 
